# Assay results: patent US10561692B2, “Allergy-inhibiting sea grape extract, its preparation method and application thereof” (Teh Fong Min International Co., Ltd., priority 2016, dated 2020)
# Tested on: degranulation of cells to release β-hexosaminidase
# Assay: β-hexosaminidase release from cells, determined by ELISA (allergy triggering / allergy induction)
# Type: cell-based
# Settings: Ctr results of FIG. 1, stimulant alone
# Protocol: […] Comparisons of the sea grape extract (I) alone group, refined sea grape (I) alone group and the control group.
# Calcium ionophore A23187 stimulates degranulation of cells to release the allergic mediator, β-hexosaminidase, the concentration of β-hexosaminidase is determined by enzyme-linked immunosorbent assay (ELISA).
structure (smiles),measurement,value
CNc1ccc2oc(C[C@H]3O[C@@]4(CC[C@H]3C)O[C@H]([C@H](C)C(=O)c3ccc[nH]3)[C@H](C)C[C@H]4C)nc2c1C(=O)O [Calcium ionophore A23187],release of β-hexosaminidase,induces release
